Measured values published in the NIST ThermoML archive (doi:10.1016/j.jct.2013.01.015).
Numbers after ± are expanded uncertainties.

What was measured:
[1] = refractive index (Na D-line) (dimensionless); conditions: 101.33 kPa, Liquid, Standard Abbe refractometry
[2] = 298.15 K; 101.33 kPa; Liquid; Vibrating tube method

Row | refractive index ([1]; 298.2 K) | mass density [2] [kg/m3] | refractive index ([1]; 298.15 K) | SMILES
1 | 1.3976 ± 0.0008 | 952.7 ± 0.2 | – | CCCC(=O)O [butanoic acid]
2 | – | 815.2 ± 0.6 | 1.4155 ± 0.0009 | CCCCCCO [hexan-1-ol]
3 | – | 654.6 ± 0.3 | 1.3751 ± 0.0008 | CCCCCC [hexane]

Row | SMILES | refractive index ([1]; 298.2 K) | mass density [2] [kg/m3] | refractive index ([1]; 298.15 K)
4 | O [water] | – | – | 1.3325 ± 0.0008
